Laboratory results published in PubChem BioAssay (NCI).
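Values below derive from 48-hour exposures of cells grown in 96-well plates, with endpoints linearly interpolated between the two concentrations bracketing the appropriate inhibition level. At the GI50, growth is halved. TGI: concentration producing complete growth inhibition.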

Assays:
Assay in all cases: growth of human tumour cells (NCI), 48 h
786-0 renal = system: 786-0 renal
A498 renal = system: A498 renal
A549 NSCLC = system: A549 NSCLC
ACHN renal = system: ACHN renal
BT-549 breast = system: BT-549 breast
CAKI-1 renal = system: CAKI-1 renal
CCRF-CEM leukemia = system: CCRF-CEM leukemia
COLO 205 colon = system: COLO 205 colon
DU-145 prostate = system: DU-145 prostate
EKVX NSCLC = system: EKVX NSCLC
HCC-2998 colon = system: HCC-2998 colon
HCT-116 colon = system: HCT-116 colon
HCT-15 colon = system: HCT-15 colon
HL-60(TB) leukemia = system: HL-60(TB) leukemia
HOP-62 NSCLC = system: HOP-62 NSCLC
HOP-92 NSCLC = system: HOP-92 NSCLC
HS 578T breast = system: HS 578T breast
HT29 colon = system: HT29 colon
IGROV1 ovarian = system: IGROV1 ovarian
K-562 leukemia = system: K-562 leukemia
KM12 colon = system: KM12 colon
LOX IMVI melanoma = system: LOX IMVI melanoma
M14 melanoma = system: M14 melanoma
MALME-3M melanoma = system: MALME-3M melanoma
MCF7 breast = system: MCF7 breast
MDA-MB-231 breast = system: MDA-MB-231 breast
MDA-MB-435 = system: MDA-MB-435
MOLT-4 leukemia = system: MOLT-4 leukemia
NCI-H226 lung = system: NCI-H226 lung

Cc1ccc(NC(=O)Cn2c(Br)nc3c2c(=O)n(C)c(=O)n3C)cc1
GI50 (786-0 renal): 2.32 µM | TGI (786-0 renal): 5.68 µM | GI50 (A498 renal): 2.01 µM | TGI (A498 renal): 5.87 µM | GI50 (A549 NSCLC): 5.61 µM | TGI (A549 NSCLC): 24.5 µM | GI50 (ACHN renal): 2.8 µM | TGI (ACHN renal): 8.12 µM | GI50 (BT-549 breast): 11.1 µM | TGI (BT-549 breast): 24 µM | GI50 (CAKI-1 renal): 4.32 µM | TGI (CAKI-1 renal): 16.3 µM | GI50 (CCRF-CEM leukemia): 17.3 µM | TGI (CCRF-CEM leukemia): 65.8 µM | GI50 (COLO 205 colon): 5.57 µM | TGI (COLO 205 colon): 19.3 µM | GI50 (DU-145 prostate): 4.64 µM | TGI (DU-145 prostate): 16.4 µM | GI50 (EKVX NSCLC): 10.7 µM | TGI (EKVX NSCLC): 25.9 µM | GI50 (HCC-2998 colon): 15.5 µM | TGI (HCC-2998 colon): 28.9 µM | GI50 (HCT-116 colon): 2.43 µM | TGI (HCT-116 colon): 8.02 µM | GI50 (HCT-15 colon): 12.2 µM | TGI (HCT-15 colon): 29.3 µM | GI50 (HL-60(TB) leukemia): > 100 µM | TGI (HL-60(TB) leukemia): > 100 µM | GI50 (HOP-62 NSCLC): 2.83 µM | TGI (HOP-62 NSCLC): 9.7 µM | GI50 (HOP-92 NSCLC): 1.9 µM | TGI (HOP-92 NSCLC): 5.29 µM | GI50 (HS 578T breast): 3.43 µM | TGI (HS 578T breast): 14.9 µM | GI50 (HT29 colon): 13.8 µM | TGI (HT29 colon): 51.5 µM | GI50 (IGROV1 ovarian): 5 µM | TGI (IGROV1 ovarian): 17.4 µM | GI50 (K-562 leukemia): 18.5 µM | TGI (K-562 leukemia): 74.5 µM | GI50 (KM12 colon): 13.6 µM | TGI (KM12 colon): 29.9 µM | GI50 (LOX IMVI melanoma): 6.27 µM | TGI (LOX IMVI melanoma): 19.4 µM | GI50 (M14 melanoma): 5.98 µM | TGI (M14 melanoma): 19.2 µM | GI50 (MALME-3M melanoma): 2.33 µM | TGI (MALME-3M melanoma): 7.01 µM | GI50 (MCF7 breast): 3.91 µM | TGI (MCF7 breast): 18.3 µM | GI50 (MDA-MB-231 breast): 2.44 µM | TGI (MDA-MB-231 breast): 6.42 µM | GI50 (MDA-MB-435): 9.32 µM | TGI (MDA-MB-435): 21.2 µM | GI50 (MOLT-4 leukemia): 27.9 µM | TGI (MOLT-4 leukemia): > 100 µM | GI50 (NCI-H226 lung): 2.07 µM | TGI (NCI-H226 lung): 4.76 µM
